What was measured:
[1] = system: PC-3 cells (non-PSMA-expressing); test: cells; assay type: cell-based, human; conditions: MTT, 72 h, mean ± SD, n = 3; read-out: IC50 PC-3
Protocol: (§1) The cytotoxicities of PSMA-activated prodrug CPT-HT-J-ZLn and PSMA hydrolysate CPT-D-GLn were evaluated by MTT assays on PSMA-expressing (PSMA^+) cancer cell LNCaP-FGC, non-PSMA-expressing (PSMA^−) cancer cells HepG2, MCF-7, Hela, DU145, and PC-3, and normal cells MDCK, LO2, respectively, using CPT as a positive control.
(§2) The human prostate cancer cell line (LNCaP-FGC), human prostate cancer cell line (PC-3), human prostate cancer cell line (DU-145), human breast cancer cell line (MCF-7), human hepatocellular carcinoma cell line (HepG2), human cervical cancer cell line (Hela), were obtained from the Chinese Academy of Medical Sciences and Peking Union Medical College. The cultures of the cells were maintained as a monolayer in RPMI 1640 or DMEM supplemented with 10% (v/v) heat inactivated fetal bovine serum and 1% (v/v) enicillin/streptomycin (Corning, New York, NY, USA) and incubated at 37 °C in a humidified atmosphere with 5% CO2. The tested compounds were dissolved in DMSO (Sigma, St. Louis, MO, USA) and added at required concentrations to the cell culture.
(§3) The cytotoxicity of all the tested compounds was evaluated in vitro via the MTT method against PSMA-expressing LNCaP-FGC cells and non-PSMA-expressing cells HepG2, Hela, MCF-7, DU145, PC-3 cells using CPT as the positive control. Tumor cells growing in the logarithmic phase were seeded in 96-well plates at a density 3 × 10^3 cells/well and incubated overnight. The following day, cells were then treated with serial dilutions of the tested compounds for 72 h. At the end of this incubation, 20 µL of 5 mg/mL methylthiazol tetrazolium (MTT) was added to each well and incubation proceeded at 37 °C for another 4 h. After the supernatant medium was thrown away, 150 µL dimethylsulphoxide (DMSO) were added to each well and absorbance was measured at 490 nm using a plate reader (BIORAD 550 spectrophotometer, Bio-rad Life Science Development Ltd., Berkeley, CA, USA). Experiments were performed in triplicate and the values were the average of three (n = 3) independent experiments. The concentration of the compound that results in 50% growth inhibition corresponds to the IC50. Tumor cell growth inhibitory rate was calculated using Equation (1): % inhibition = (1 − Sample group OD/Control group OD) × 100%(1)

[2] = system: HepG2 cells (non-PSMA-expressing); test: cells; assay type: cell-based, human; conditions: MTT, 72 h, mean ± SD, n = 3; read-out: IC50 HepG2
Protocol: as §1, §2, §3

[3] = system: MCF-7 cells (non-PSMA-expressing); test: cells; assay type: cell-based, human; conditions: MTT, 72 h, mean ± SD, n = 3; read-out: IC50 MCF-7
Protocol: as §1, §2, §3

[4] = system: DU145 cells (non-PSMA-expressing); test: cells; assay type: cell-based, human; conditions: MTT, 72 h, mean ± SD, n = 3; read-out: IC50 DU145
Protocol: as §1, §2, §3

[5] = system: MDCK cells; test: cells; assay type: cell-based; conditions: MTT, 72 h, normal cells; read-out: IC50 MDCK
Protocol: as §1, §3

[6] = system: LO2 cells; test: cells; assay type: cell-based; conditions: MTT, 72 h, normal cells; read-out: IC50 LO2
Protocol: as §1, §3

[7] = system: HeLa cells (non-PSMA-expressing); test: MTT cytotoxicity assay, HeLa; assay type: cell-based, human; conditions: 72 h, mean ± SD, n = 3
Protocol: as §1
The tested compounds were dissolved in DMSO (Sigma, St. Louis, MO, USA) and added at required concentrations to the cell culture.
as §3, with “experiments.” for “experiments. The concentration of the compound that results in 50% growth inhibition corresponds to the IC50. Tumor cell growth inhibitory rate was calculated using Equation (1): % inhibition = (1 − Sample group OD/Control group OD) × 100%(1)”

[8] = system: LNCaP-FGC cells (PSMA-expressing); test: MTT cytotoxicity assay, LNCaP-FGC; assay type: cell-based, human; conditions: MTT, 72 h, mean ± SD, n = 3; PSMA+; read-out: IC50 LNCaP-FGC
Protocol: as §1, §2, §3

SMILES: CC[C@@]1(OC(=O)CCCCCNC(=O)[C@H](CCC(=O)N[C@@H](CCC(=O)N[C@@H](CCC(=O)N[C@@H](CC(=O)OC(C)(C)C)C(=O)N[C@@H](CCC(=O)OC(C)(C)C)C(=O)OC(C)(C)C)C(=O)OC(C)(C)C)C(=O)OC(C)(C)C)NC(=O)OC(C)(C)C)C(=O)OCc2c1cc1n(c2=O)Cc2cc3ccccc3nc2-1 [CPT-HT-J-L6, 1,11,16,3-tetra-tert-butyl 28-((S)-4-ethyl-3,14-dioxo-3,4,12,14-tetrahydro-1H-pyrano[3′,4′:6,7]indolizino[1,2-b]quinolin-4-yl) (3S,6S,11S,16S,21S)-6-(2-(tert-butoxy)-2-oxoethyl)-21-((tert-butoxycarbonyl)amino)-5,8,13,18,22-pentaoxo-4,7,12,17,23-pentaazaoctacosane-1,3,11,16,28-pentacarboxylate]
- IC50 [1]: > 40 µM
- IC50 [2]: > 40 µM
- IC50 [3]: > 40 µM
- IC50 [4]: > 40 µM
- IC50 [5]: > 40 µM
- IC50 [6]: > 40 µM
- IC50 [7]: > 40 µM
- IC50 [8]: > 40 µM

SMILES: CC[C@@]1(OC(=O)CCCCCCCCCCCNC(=O)[C@H](CCC(=O)N[C@@H](CCC(=O)N[C@@H](CCC(=O)N[C@@H](CC(=O)OC(C)(C)C)C(=O)N[C@@H](CCC(=O)OC(C)(C)C)C(=O)OC(C)(C)C)C(=O)OC(C)(C)C)C(=O)OC(C)(C)C)NC(=O)OC(C)(C)C)C(=O)OCc2c1cc1n(c2=O)Cc2cc3ccccc3nc2-1 [CPT-HT-J-L12, 1,11,16,3-tetra-tert-butyl 34-((S)-4-ethyl-3,14-dioxo-3,4,12,14-tetrahydro-1H-pyrano[3′,4′:6,7]indolizino[1,2-b]quinolin-4-yl) (3S,6S,11S,16S,21S)-6-(2-(tert-butoxy)-2-oxoethyl)-21-((tert-butoxycarbonyl)amino)-5,8,13,18,22-pentaoxo-4,7,12,17,23-pentaazatetratriacontane-1,3,11,16,34-pentacarboxylate]
- IC50 [1]: > 40 µM
- IC50 [2]: > 40 µM
- IC50 [3]: > 40 µM
- IC50 [4]: > 40 µM
- IC50 [5]: > 40 µM
- IC50 [6]: > 40 µM
- IC50 [7]: > 40 µM
- IC50 [8]: > 40 µM

SMILES: CC[C@@]1(OC(=O)CNC(=O)[C@@H](N)CCC(=O)N[C@@H](CCC(=O)N[C@@H](CCC(=O)N[C@@H](CC(=O)O)C(=O)N[C@@H](CCC(=O)O)C(=O)O)C(=O)O)C(=O)O)C(=O)OCc2c1cc1n(c2=O)Cc2cc3ccccc3nc2-1 [CPT-HT-J-ZL2, ((S)-4-((S)-4-((S)-4-amino-5-((2-(((S)-4-ethyl-3,14-dioxo-3,4,12,14-tetrahydro-1H-pyrano[3′,4′:6,7]indolizino[1,2-b]quinolin-4-yl)oxy)-2-oxoethyl)amino)-5-oxopentanamido)-4-carboxybutanamido)-4-carboxybutanoyl)-L-aspartyl-L-glutamic acid]
- IC50 [1]: 1 ± 0.1 µM
- IC50 [2]: > 40 µM
- IC50 [3]: 0.11 ± 0.08 µM
- IC50 [4]: 1.16 ± 0.28 µM
- IC50 [5]: 1.27 ± 0.3 µM
- IC50 [6]: 1.68 ± 0.45 µM
- IC50 [7]: 3.54 ± 2.54 µM
- IC50 [8]: 2.04 ± 0.3 µM

SMILES: CC[C@@]1(OC(=O)CCCNC(=O)[C@@H](N)CCC(=O)N[C@@H](CCC(=O)N[C@@H](CCC(=O)N[C@@H](CC(=O)O)C(=O)N[C@@H](CCC(=O)O)C(=O)O)C(=O)O)C(=O)O)C(=O)OCc2c1cc1n(c2=O)Cc2cc3ccccc3nc2-1 [CPT-HT-J-ZL4, (3S,6S,11S,16S,21S)-21-amino-6-(carboxymethyl)-27-(((S)-4-ethyl-3,14-dioxo-3,4,12,14-tetrahydro-1H-pyrano[3′,4′:6,7]indolizino[1,2-b]quinolin-4-yl)oxy)-5,8,13,18,22,27-hexaoxo-4,7,12,17,23-pentaazaheptacosane-1,3,11,16-tetracarboxylic acid]
- IC50 [1]: 9.98 ± 2.38 µM
- IC50 [2]: > 40 µM
- IC50 [3]: 0.32 ± 0.01 µM
- IC50 [4]: 9.73 ± 3.49 µM
- IC50 [5]: 9.13 ± 2.4 µM
- IC50 [6]: > 40 µM
- IC50 [7]: > 40 µM
- IC50 [8]: 1.18 ± 0.1 µM

— paper PMC6214026, “PSMA-Oriented Target Delivery of Novel Anticancer Prodrugs: Design, Synthesis, and Biological Evaluations of Oligopeptide-Camptothecin Conjugates” (International Journal of Molecular Sciences, 2018)
